The source of these data is PubChem BioAssay (NCI).

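Where inhibition never reached the appropriate level, the endpoint shown equals the highest concentration tested. Otherwise, values were interpolated linearly from a five-concentration, 48-hour dose response in 96-well plates. At the GI50, growth is halved. Definition used: TGI = concentration required for complete inhibition of growth.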

In one assay the test system is DU-145 prostate. As to the kind of experiment: NCI-60 cell line screen, 48 h.
Turning to `O=C(Nn1c(-c2ccccc2)nc2ccccc2c1=O)c1ccc(Cl)cc1`, the TGI is over 100 µM.

On to `CC(=O)c1ccc(N=NN2CCCC2)cc1`, for which the TGI is over 100 µM.

Compound `Cc1nc2sc3cccc(Cl)c3n2c(=O)c1N=Nc1ccc(Cl)cc1` gave a TGI of over 100 µM.

`CSC(=O)/C=C1\SS/C(=C\C(=O)SC)S1` had a TGI of 15.7 µM.

Compound `Cn1c(CNc2ccc(-c3n[nH]c(=S)n3C)cc2)n[nH]c1=S` registered a TGI of over 100 µM.

The compound `NCCOc1cccc(C2(N3CCCCC3)CCCCC2)c1` registered a TGI of over 100 µM.

The compound `Cc1ccc(N=N/C(=N/NC(=O)c2ccccc2)c2ccc(N(CCC#N)CCC#N)cc2C)cc1` returned a TGI of over 100 µM.

In the case of `CC(N)(CC(O)(C(F)(F)Cl)C(F)(F)Cl)C(=O)O` (stereo not given), the TGI is over 10 µM.

For `CCCCCCCCCCCCCCCCCCNc1ccn(C2OC(COP(=O)(O)OCC3OC(n4ccc(N)nc4=O)C(O)C3O)C(O)C2O)c(=O)n1` (stereo not given), the TGI is over 100 µM.

Take `COc1ccc(CCCCNCc2cccc(CNCCCCc3ccc(OC)cc3)c2)cc1`: the TGI was 3.54 µM.

The compound `CC(SC(=S)N1CCOCC1)C(=O)Nc1nnc(-c2ccc(Cl)cc2)o1` (stereo not given) returned a TGI of over 100 µM.

`CC(=O)c1ccc(Nc2c3c(nc4ccccc24)CCCC3)cc1` gave a TGI of over 65 µM.

`CCN1CCC(O)(c2ccc([N+](=O)[O-])cc2)C(C(=O)c2ccc([N+](=O)[O-])cc2)C1` (stereo not given) came in with a TGI of 32.3 µM.

As to `S=C1Cc2c(-c3ccccc3)cc(-c3cccc(Cl)c3)nc2-c2ccccc2N1`, the TGI turned out to be 38.9 µM.

The compound `N#Cc1sc2nc3ccccc3n2c1N` displayed a TGI of over 100 µM.

In turn, `N#Cc1c(NC(=O)C(F)(F)F)sc2c3c(=O)c4ccccc4c(=O)c=3oc3ccccc3c12` gave a TGI of 28.7 µM.

Consider `Cc1c(C)c2c(c(N)c1C#N)C(=O)N(Cc1ccc(S(N)(=O)=O)cc1)C2=O`, for which the TGI is over 75.8 µM.

For the compound `CN(NC1=NCCO1)c1ccc2ccccc2c1`, the TGI is over 100 µM.

`O=C1CC(O)c2cscc21` (stereo not given) returned a TGI of over 100 µM.

In the case of `COC(=O)/C=C/c1ccc(OP(=O)(O)O)c(OC)c1`, the TGI is over 100 µM.

Take `COc1ccc(OC)c2sc(N3C(=O)/C(=C/c4cccc(Oc5ccccc5)c4)N=C3c3ccccc3)nc12`: the TGI was over 100 µM.

As for `Cc1cc(O)c(/C=N/C(N)=S)c(=O)o1`, the TGI is over 100 µM.

For `Cc1[nH]n(-c2nc3c(c(=O)[nH]2)CCCC3)c(=O)c1CCO`, the TGI was over 100 µM.

The test system of a further assay is TK-10 renal. As to the kind of experiment: NCI-60 cell line screen, 48 h.
Regarding `O=C(Nn1c(-c2ccccc2)nc2ccccc2c1=O)c1ccc(Cl)cc1`, the TGI was over 100 µM.

In turn, `CC(=O)c1ccc(N=NN2CCCC2)cc1` showed a TGI of over 100 µM.

For `Cc1nc2sc3cccc(Cl)c3n2c(=O)c1N=Nc1ccc(Cl)cc1`, the TGI is over 100 µM.

In turn, `CSC(=O)/C=C1\SS/C(=C\C(=O)SC)S1` had a TGI of 15.5 µM.

As to `Cn1c(CNc2ccc(-c3n[nH]c(=S)n3C)cc2)n[nH]c1=S`, the TGI is over 100 µM.

Consider `NCCOc1cccc(C2(N3CCCCC3)CCCCC2)c1`, for which the TGI is over 100 µM.

As for `Cc1ccc(N=N/C(=N/NC(=O)c2ccccc2)c2ccc(N(CCC#N)CCC#N)cc2C)cc1`, the TGI was over 100 µM.

On to `CC(N)(CC(O)(C(F)(F)Cl)C(F)(F)Cl)C(=O)O` (stereo not given), for which the TGI was over 10 µM.

With `CCCCCCCCCCCCCCCCCCNc1ccn(C2OC(COP(=O)(O)OCC3OC(n4ccc(N)nc4=O)C(O)C3O)C(O)C2O)c(=O)n1` (stereo not given), the TGI is over 100 µM.

Compound `COc1ccc(CCCCNCc2cccc(CNCCCCc3ccc(OC)cc3)c2)cc1` yielded a TGI of 5.02 µM.

In turn, `CC(SC(=S)N1CCOCC1)C(=O)Nc1nnc(-c2ccc(Cl)cc2)o1` (stereo not given) had a TGI of over 100 µM.

The compound `CC(=O)c1ccc(Nc2c3c(nc4ccccc24)CCCC3)cc1` gave a TGI of over 100 µM.

`CCN1CCC(O)(c2ccc([N+](=O)[O-])cc2)C(C(=O)c2ccc([N+](=O)[O-])cc2)C1` (stereo not given) displayed a TGI of 32.4 µM.

In the case of `S=C1Cc2c(-c3ccccc3)cc(-c3cccc(Cl)c3)nc2-c2ccccc2N1`, the GI50 was 0.436 µM and the TGI was determined as 1.9 µM.

For `N#Cc1sc2nc3ccccc3n2c1N`, the TGI is over 100 µM.

`N#Cc1c(NC(=O)C(F)(F)F)sc2c3c(=O)c4ccccc4c(=O)c=3oc3ccccc3c12` gave a TGI of 74.6 µM.

`Cc1c(C)c2c(c(N)c1C#N)C(=O)N(Cc1ccc(S(N)(=O)=O)cc1)C2=O` showed a TGI of 99.7 µM.

`CN(NC1=NCCO1)c1ccc2ccccc2c1` returned a TGI of over 100 µM.

`O=C1CC(O)c2cscc21` (stereo not given) gave a TGI of over 100 µM.

`COC(=O)/C=C/c1ccc(OP(=O)(O)O)c(OC)c1` yielded a TGI of over 100 µM.

On to `COc1ccc(OC)c2sc(N3C(=O)/C(=C/c4cccc(Oc5ccccc5)c4)N=C3c3ccccc3)nc12`, for which the TGI is over 100 µM.

In turn, `Cc1cc(O)c(/C=N/C(N)=S)c(=O)o1` gave a TGI of 90.5 µM.

Take `Cc1[nH]n(-c2nc3c(c(=O)[nH]2)CCCC3)c(=O)c1CCO`: the TGI is over 100 µM.

The next assay deals with SK-MEL-5 melanoma. As to the kind of experiment: NCI-60 cell line screen, 48 h.
The compound `O=C(Nn1c(-c2ccccc2)nc2ccccc2c1=O)c1ccc(Cl)cc1` had a TGI of over 100 µM.

`CC(=O)c1ccc(N=NN2CCCC2)cc1` displayed a TGI of over 100 µM.

For the compound `Cc1nc2sc3cccc(Cl)c3n2c(=O)c1N=Nc1ccc(Cl)cc1`, the TGI was over 100 µM.

Turning to `CSC(=O)/C=C1\SS/C(=C\C(=O)SC)S1`, the TGI stood at 6.79 µM.

`Cn1c(CNc2ccc(-c3n[nH]c(=S)n3C)cc2)n[nH]c1=S`: the TGI is over 100 µM.

`NCCOc1cccc(C2(N3CCCCC3)CCCCC2)c1` showed a TGI of 30.1 µM.

`Cc1ccc(N=N/C(=N/NC(=O)c2ccccc2)c2ccc(N(CCC#N)CCC#N)cc2C)cc1` registered a TGI of over 100 µM.

In the case of `CC(N)(CC(O)(C(F)(F)Cl)C(F)(F)Cl)C(=O)O` (stereo not given), the TGI is over 10 µM.

For `CCCCCCCCCCCCCCCCCCNc1ccn(C2OC(COP(=O)(O)OCC3OC(n4ccc(N)nc4=O)C(O)C3O)C(O)C2O)c(=O)n1` (stereo not given), the TGI is over 100 µM.

`COc1ccc(CCCCNCc2cccc(CNCCCCc3ccc(OC)cc3)c2)cc1` had a TGI of 3.25 µM.

As to `CC(SC(=S)N1CCOCC1)C(=O)Nc1nnc(-c2ccc(Cl)cc2)o1` (stereo not given), the TGI is over 100 µM.

Take `CC(=O)c1ccc(Nc2c3c(nc4ccccc24)CCCC3)cc1`: the TGI was over 59.2 µM.

Compound `CCN1CCC(O)(c2ccc([N+](=O)[O-])cc2)C(C(=O)c2ccc([N+](=O)[O-])cc2)C1` (stereo not given) registered a TGI of 35.7 µM.

`S=C1Cc2c(-c3ccccc3)cc(-c3cccc(Cl)c3)nc2-c2ccccc2N1` had a TGI of over 81.7 µM.

For `N#Cc1sc2nc3ccccc3n2c1N`, the TGI is over 100 µM.

In the case of `N#Cc1c(NC(=O)C(F)(F)F)sc2c3c(=O)c4ccccc4c(=O)c=3oc3ccccc3c12`, the TGI is 26.6 µM.

Consider `Cc1c(C)c2c(c(N)c1C#N)C(=O)N(Cc1ccc(S(N)(=O)=O)cc1)C2=O`, for which the TGI is over 100 µM.

The compound `CN(NC1=NCCO1)c1ccc2ccccc2c1` returned a TGI of 93.3 µM.

Compound `O=C1CC(O)c2cscc21` (stereo not given) registered a TGI of over 100 µM.

`COC(=O)/C=C/c1ccc(OP(=O)(O)O)c(OC)c1` displayed a TGI of over 100 µM.

With `COc1ccc(OC)c2sc(N3C(=O)/C(=C/c4cccc(Oc5ccccc5)c4)N=C3c3ccccc3)nc12`, the TGI was over 100 µM.

For the compound `Cc1cc(O)c(/C=N/C(N)=S)c(=O)o1`, the TGI is over 100 µM.

`Cc1[nH]n(-c2nc3c(c(=O)[nH]2)CCCC3)c(=O)c1CCO` returned a TGI of over 100 µM.
